PMC12422182 (Science Advances, 2025)

Tests used:
OBP13 [1] = test: fluorescence titration, Scatchard analysis; type: binding, Locusta migratoria
OBP13 [2] = test: competitive fluorescence binding assay; design: species or system Locusta migratoria
Clvs2 = test: microscale thermophoresis; type: binding, Locusta migratoria

In the case of `c1ccc(Nc2cccc3ccccc23)cc1` [1-NPN, N-phenyl-1-naphthylamine], the Kd (OBP13 [1]) is reported as 13.8 µM.
`C=Cc1ccc(OC)cc1` [4VA, 4-vinylanisole] was tested, and the Ki (OBP13 [2]) was 3.46 µM.
With “phosphatidylinositol 4,5-bisphosphate [PI(4,5)P2]” the Kd (Clvs2) was 5.86 ± 0.59 µM.
